Data from paper PMC10698194 (Nature Communications, 2023).
“And” between values parts separate entries of the source, which are not always exact repeats. Equal values may be shown once. Read-outs that look alike come from different tables or passages of the source. Bridge positions count the residues as written; N and C are the ends. Square brackets hold non-standard residues; d marks the D form. Peptide text beside a SMILES is read from it. * marks the point of attachment. X1 = C=CCN1CC[C@]23c4c5ccc(O)c4O[C@H]2[C@H](N*)CC[C@@]3(O)[C@H]1C5

Key:
human KOR I316A [1] = molecular target: T1, human KOR I316A (Homo sapiens, UniProt P41145, I316A); experiment: BRET β-arrestin-2 biosensor assay; type: cell-based
T1 construct: FLAG; expressed in transfected cells; host or cells: HEK293 / HEK293T, transient
T1 sequence (P41145 whole entry I316A): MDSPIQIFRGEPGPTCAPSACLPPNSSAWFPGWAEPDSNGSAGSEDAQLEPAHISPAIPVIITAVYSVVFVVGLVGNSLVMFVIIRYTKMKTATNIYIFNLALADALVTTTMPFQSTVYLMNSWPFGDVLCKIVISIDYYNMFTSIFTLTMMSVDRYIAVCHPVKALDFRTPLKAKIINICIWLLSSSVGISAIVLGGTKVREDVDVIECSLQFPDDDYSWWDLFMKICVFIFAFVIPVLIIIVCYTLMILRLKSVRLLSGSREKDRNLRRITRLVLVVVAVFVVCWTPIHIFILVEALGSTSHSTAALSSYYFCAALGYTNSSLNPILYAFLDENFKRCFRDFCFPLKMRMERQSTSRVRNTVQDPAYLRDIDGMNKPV

human KOR M142A = molecular target: T2, human KOR M142A (Homo sapiens, UniProt P41145, M142A); experiment: BRET β-arrestin-2 biosensor assay; type: cell-based
T2 construct: FLAG; expressed in transfected cells; host or cells: HEK293 / HEK293T, transient
T2 sequence (P41145 whole entry M142A): as the sequence (P41145 whole entry I316A) above, with M142A, A316I counted along it

human KOR Y320A [2] = molecular target: T3, human KOR Y320A (Homo sapiens, UniProt P41145, Y320A); experiment: BRET β-arrestin-2 biosensor assay; type: cell-based
T3 construct: FLAG; expressed in transfected cells; host or cells: HEK293 / HEK293T, transient
T3 sequence (P41145 whole entry Y320A): as the sequence (P41145 whole entry I316A) above, with A316I, Y320A counted along it

male SWISS mice [3] = experiment: Rotarod test (motor coordination/sedation); type: in vivo, mouse; details: DNCP-β-NalA(1) 3.8 and 7.6, U50,488 5.4 µmol kg^−1 s.c.
Procedure: The rotarod test was used to evaluate coordinated locomotion and potential sedation induced by test drugs. […] Male SWISS mice (8–10 weeks old, 30–35 g body weight, n = 21 mice) were habituated to the equipment in two training sessions (30 min apart) one day before testing. On the experimental day, male mice were placed on the rotarod, and treadmill was accelerated from 4 to 40 rotations-per-minute over a period of 5 min. […] Decreased latencies to fall in the rotarod test indicate impaired motor performance. A 300 s cut-off time was used. The rotarod data are expressed as percentage (%) changes from the rotarod latencies obtained before (baseline) and after drug administration (test, T) were calculated as 100*(T/B).

mouse KOR, GαoB = mouse KOR, GαoB (Mus musculus, UniProt P33534); experiment: TRUPATH BRET G protein assay, GαoB; type: cell-based; details: read-out: Emax (%) GαoB
Sequence of mouse KOR, GαoB (P33534 whole entry): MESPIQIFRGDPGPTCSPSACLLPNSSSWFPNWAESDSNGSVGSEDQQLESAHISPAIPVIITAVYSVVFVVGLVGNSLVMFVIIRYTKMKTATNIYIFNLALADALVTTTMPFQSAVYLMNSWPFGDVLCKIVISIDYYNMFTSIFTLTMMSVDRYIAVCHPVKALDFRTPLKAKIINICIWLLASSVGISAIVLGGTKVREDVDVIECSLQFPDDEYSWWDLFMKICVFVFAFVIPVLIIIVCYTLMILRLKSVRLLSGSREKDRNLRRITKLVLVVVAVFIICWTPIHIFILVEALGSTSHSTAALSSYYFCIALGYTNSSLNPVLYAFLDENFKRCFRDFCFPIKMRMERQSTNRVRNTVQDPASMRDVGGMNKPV
Sequence of mouse KOR, GαoB (P09471 2-354 partner): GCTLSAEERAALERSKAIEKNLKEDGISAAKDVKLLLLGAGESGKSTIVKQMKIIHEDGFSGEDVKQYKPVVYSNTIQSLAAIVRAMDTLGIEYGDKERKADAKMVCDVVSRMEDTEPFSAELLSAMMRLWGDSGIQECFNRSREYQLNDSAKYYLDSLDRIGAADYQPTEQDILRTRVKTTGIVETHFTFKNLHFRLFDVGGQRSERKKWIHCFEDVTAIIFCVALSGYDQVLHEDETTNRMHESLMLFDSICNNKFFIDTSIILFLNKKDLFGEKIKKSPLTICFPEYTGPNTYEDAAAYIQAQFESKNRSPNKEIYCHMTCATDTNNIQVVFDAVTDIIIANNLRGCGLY

human KOR WT [4] = molecular target: T4, human KOR WT (Homo sapiens, UniProt P41145); experiment: cAMP inhibition assay normalized to salvinorin A; type: cell-based; details: KOR WT; normalized to salvinorin A
T4 construct: FLAG; expressed in transfected cells; host or cells: HEK293T, transient
T4 sequence (P41145 whole entry): as the sequence (P41145 whole entry I316A) above, with A316I counted along it

mouse KOR, Gαi2 = molecular target: T5, mouse KOR, Gαi2 (Mus musculus, UniProt P33534); experiment: TRUPATH BRET G protein assay, Gαi2; type: cell-based; details: TRUPATH
T5 construct: expressed in transfected cells; host or cells: HEK293T (ATCC, CRL-3216), transient
T5 sequence (P33534 whole entry): as the sequence (P33534 whole entry) above

human KOR WT [5] = molecular target: T4, human KOR WT; type: cell-based; details: HEK-293T, KOR WT
human KOR D138A = molecular target: T6, human KOR D138A (Homo sapiens, UniProt P41145, D138A); experiment: cAMP inhibition assay normalized to salvinorin A; type: cell-based
T6 construct: expressed in transfected cells
T6 sequence (P41145 whole entry D138A): as the sequence (P41145 whole entry I316A) above, with D138A, A316I counted along it

human KOR I316A [6] = molecular target: T1, human KOR I316A; type: cell-based; details: HEK-293T
human KOR = human KOR (Homo sapiens, UniProt P41145); experiment: cell-based; set-up: expressed in transfected cells; host or cells: HEK293, transient; details: HEK293, read-out: Emax β-arrestin-1 recruitment
Sequence of human KOR (P41145 whole entry): as the sequence (P41145 whole entry I316A) above, with A316I counted along it

human KOR Y320A [7] = molecular target: T3, human KOR Y320A; type: cell-based; details: HEK-293T
[8] = Serum stability assay (HPLC)
Procedure: Blood was drawn from healthy volunteers devoid of any medication for 14 days from the antecubital vein using 21 G needles and collected in a serum clot activator tube (4 mL tubes, Greiner bio-one). […] Volunteers gave written informed consent before blood donation. […] Blood samples were collected into Vacuette® clot activator tubes (Greiner Bio-One, Austria). After clotting of about 2 h, the samples were centrifuged at 2200 × g for 15 min at 22 °C. The serum was removed and centrifuged again to remove lipids and cell particles at 16,000 × g at 4 °C for 20 min. […] The samples were incubated at 37 °C under continuous shaking at 300 rotations-per-minute. […] The samples were mixed well and incubated on ice for 10 min. For the protein precipitation, 30 µL of a 20% (w/v) trichloroacetic acid was added and incubated on ice for 15 min. The clear supernatant was harvested by centrifugation at 16,000 × g at 4 °C for 20 min and this sample was used for HPLC analysis. The chromatography HPLC system was a ThermoFisher Ultimate 3000 equipped with a pump, autosampler and single wavelength detector. […] The remaining peptide was calculated relative to the AUC at time point zero. The data points were fitted to a one-phase decay function and to determine the resulting half-life of the peptide in serum.
0.1% trifluoroacetic acid in water and acetonitrile/water trifluoroacetic acid 90/10/0.1% (v/v/v) with a
linear separation gradient over 30 min.

human KOR WT [9] = molecular target: T4, human KOR WT; experiment: BRET β-arrestin-2 biosensor assay; type: cell-based; details: KOR WT
human KOR Y312A = molecular target: T7, human KOR Y312A (Homo sapiens, UniProt P41145, Y312A); type: cell-based
T7 construct: FLAG; expressed in transfected cells; host or cells: HEK293T
T7 sequence (P41145 whole entry Y312A): as the sequence (P41145 whole entry I316A) above, with Y312A, A316I counted along it

human KOR F293A = molecular target: T8, human KOR F293A (Homo sapiens, UniProt P41145, F293A); type: cell-based; details: HEK-293T
T8 construct: FLAG; expressed in transfected cells; host or cells: HEK293 / HEK293T, transient
T8 sequence (P41145 whole entry F293A): as the sequence (P41145 whole entry I316A) above, with F293A, A316I counted along it

male SWISS mice [10] = experiment: CFA-induced inflammatory hyperalgesia, Hargreaves test; type: in vivo, mouse; details: for CFA-induced inflammatory hyperalgesia (paw withdrawal latency): individual mice, listed as DNCP-ß-NalA (1)
Procedure: CFA-induced inflammatory hyperalgesia was induced in male SWISS mice (8–10 weeks old, 30–35 g body weight, n = 53 mice) by s.c. injection of 20 µL emulsified CFA (1 mg mL^−1) into the plantar surface of the right hindpaw under brief isoflurane anesthesia. Nociceptive testing was performed 72 h after inoculation with CFA. Hindpaws withdrawal latencies to thermal stimulation were measured using the Hargreaves test[84] with an analgesiometer (Ugo Basile S.R.L., Varese, Italy). Male mice were habituated in individual Plexiglas boxes positioned on a glass surface (Ugo Basile S.R.L., Varese, Italy) for three days prior to the inoculation with CFA. A movable infrared generator (30% intensity) located under the glass floor was focused onto the plantar surface of the hindpaw and switched on to heat. Onset of the radiant stimulus triggered a timer, which was stopped by subsequent paw movement. To prevent tissue damage, a cut-off time of 20 s was imposed. […] The paw withdrawal latencies to thermal stimulus was expressed in seconds.

human KOR L309A = molecular target: T9, human KOR L309A (Homo sapiens, UniProt P41145, L309A); experiment: BRET β-arrestin-2 biosensor assay; type: cell-based; details: KOR L309A
T9 construct: FLAG; expressed in transfected cells; host or cells: HEK293T
T9 sequence (P41145 whole entry L309A): as the sequence (P41145 whole entry I316A) above, with L309A, A316I counted along it

male SWISS mice [11] = experiment: Formalin test (pain behavior, phase II); type: in vivo, mouse; details: for Formalin test (duration of pain behaviour): individual mice, listed as DNCP-ß-NalA (1)

For `C=CCN1CC[C@]23c4c5ccc(O)c4O[C@H]2[C@H](NC(=O)[C@@H](Cc2ccccc2)NC(=O)[C@@H](NC(=O)[C@@H]2CSCC(=O)N[C@@H](Cc4ccc(O)cc4)C(=O)N[C@@H](C)C(=O)N[C@H](Cc4ccc(O)cc4)C(=O)N[C@@H]([C@@H](C)O)C(=O)N[C@@H]([C@@H](C)O)C(=O)N2)[C@@H](C)O)CC[C@@]3(O)[C@H]1C5` [DNCP-β-NalA(1)] ({CH2CO}-YA[dY]TTCT[dF]-X1; thioether N-6), the Emax (human KOR I316A [1]) was 22.7 ± 1.59%, the Emax (human KOR M142A) was 91.7 ± 11.6% and the Emax (human KOR Y320A [2]) was 83.5 ± 4.81%. The “rotarod performance / motor behavior” value (male SWISS mice [3]) was “no changes in the motor behavior”, the Emax (mouse KOR, GαoB) was 76 ± 6% and the Emax (human KOR WT [4]) was 100.6 ± 0.9%. For the same compound, the Emax (mouse KOR, Gαi2) was 62 ± 6%, the Emax (human KOR WT [5]) was 85.9 ± 1.2% and the “reduction of cAMP inhibition potency” value (human KOR D138A; D138A vs WT, authors' response) was 17 fold. It also gave an Emax (human KOR D138A; KOR D138A, normalized to salvinorin A) of 105 ± 2.4%, an Emax (human KOR I316A [6]) of 85.75 ± 0.72% and an Emax (human KOR) of 30%. The Emax (human KOR Y320A [7]) was 86.8 ± 2.05%, the “serum stability, amount remaining, Figure S15” value ([8]; Time (min) 0) was 100 and the stable in serum ([8]; authors' response in peer review file) was “at least 50 h”. The remaining at 5 min, 50 µM ([8]; human, human serum, serum stability, amount remaining, Figure S15, Time (min) 5) was 94%, the remaining at 10 min, 50 µM ([8]; human, human serum, serum stability, amount remaining, Figure S15, Time (min) 10) was 94% and the remaining at 20 min, 50 µM ([8]; human, human serum, serum stability, amount remaining, Figure S15, Time (min) 20) was 99%. The remaining at 40 min, 50 µM ([8]; human, human serum, serum stability, amount remaining, Figure S15, Time (min) 40) was 96%, the remaining at 1 h, 50 µM ([8]; human, human serum, serum stability, amount remaining, Figure S15, Time (min) 60) was 106% and the remaining at 2 h, 50 µM ([8]; human, human serum, serum stability, amount remaining, Figure S15, Time (min) 120) was 98%. It also gave a remaining at 4 h, 50 µM ([8]; human, human serum, serum stability, amount remaining, Figure S15, Time (min) 240) of 101%, a remaining at 6 h, 50 µM ([8]; human, human serum, serum stability, amount remaining, Figure S15, Time (min) 360) of 99% and a remaining at 24 h, 50 µM ([8]; human, human serum, serum stability, amount remaining, Figure S15, Time (min) 1440) of 98%. For the same compound, the remaining at 48 h, 50 µM ([8]; human, human serum, serum stability, amount remaining, Figure S15, Time (min) 2880) was 96%, the remaining at 48 h, 50 µM ([8]; human, human serum, serum stability, remaining intact, after 48 h, 37 °C) was greater than 95% and the Emax (human KOR WT [9]) was 35.3 ± 1.13%. For the same compound, the Emax (human KOR Y312A; HEK-293T, KOR Y312A) was 82.46 ± 0.65%, the “loss of potency in G protein activation” value (human KOR Y312A; Y312A vs WT) was 4 fold and the Emax (human KOR F293A) was 85.55 ± 0.78%. The “CFA-induced inflammatory hyperalgesia (paw withdrawal latency)” value (“CFA-induced inflammatory hyperalgesia” for short) (male SWISS mice [10]; 0.4 µmol/kg, time 0.5 h) was 4.5 s and 3.8 s and 3.4 s and 4.3 s and 3.3 s and 4.6 s, the “CFA-induced inflammatory hyperalgesia” value (male SWISS mice [10]; 0.4 µmol/kg, time 1 h) was 4.1 s and 5.3 s and 2.8 s and 3.2 s and 3 s and 2.4 s and the “CFA-induced inflammatory hyperalgesia” value (male SWISS mice [10]; 0.4 µmol/kg, time 2 h) was 5.2 seconds and 3.9 seconds and 3.8 seconds and 3.4 seconds (2×) and 3.2 seconds. The “CFA-induced inflammatory hyperalgesia” value (male SWISS mice [10]; 0.4 µmol/kg, time 3 h) was 4.6 seconds and 3.9 seconds and 4.1 seconds and 3.4 seconds (2×) and 2.9 seconds, the “CFA-induced inflammatory hyperalgesia” value (male SWISS mice [10]; 0.4 µmol/kg, time 4 h) was 4 s and 3.6 s and 3.4 s and 3 s and 3.2 s and 2.7 s and the “CFA-induced inflammatory hyperalgesia” value (male SWISS mice [10]; 0.8 µmol/kg, time 0.5 h) was 3.8 s and 4.7 s and 5.2 s and 5.9 s and 4 s and 4.4 s. For the same compound, the “CFA-induced inflammatory hyperalgesia” value (male SWISS mice [10]; 0.8 µmol/kg, time 1 h) was 3.4 seconds and 3.5 seconds (2×) and 4.2 seconds and 3.8 seconds and 3.6 seconds, the “CFA-induced inflammatory hyperalgesia” value (male SWISS mice [10]; 0.8 µmol/kg, time 2 h) was 2.7 seconds and 3.7 seconds and 3.9 seconds (2×) and 3.4 seconds and 4 seconds and the “CFA-induced inflammatory hyperalgesia” value (male SWISS mice [10]; 0.8 µmol/kg, time 3 h) was 3.5 seconds (3×) and 3.1 seconds (2×) and 2.9 seconds. The “CFA-induced inflammatory hyperalgesia” value (male SWISS mice [10]; 0.8 µmol/kg, time 4 h) was 2.6 seconds and 3.4 seconds and 3 seconds and 3.2 seconds and 3.1 seconds (2×), the “CFA-induced inflammatory hyperalgesia” value (male SWISS mice [10]; 0.8 µmol/kg, time BL) was 10.2 s and 11.3 s and 9.9 s and 10.1 s and 10.3 s and the “CFA-induced inflammatory hyperalgesia” value (male SWISS mice [10]; 1.9 µmol/kg, time 0.5 h) was 4.2 s and 5.6 s and 7.4 s and 7.3 s and 7.2 s and 5.3 s. For the same compound, the “CFA-induced inflammatory hyperalgesia” value (male SWISS mice [10]; 1.9 µmol/kg, time 1 h) was 3.9 seconds and 4.5 seconds (2×) and 6.6 seconds and 5 seconds and 3.5 seconds, the “CFA-induced inflammatory hyperalgesia” value (male SWISS mice [10]; 1.9 µmol/kg, time 2 h) was 2.9 s and 4.1 s and 4.4 s and 3.4 s and 3.5 s and 3.8 s and the “CFA-induced inflammatory hyperalgesia” value (male SWISS mice [10]; 1.9 µmol/kg, time 3 h) was 3.5 seconds (2×) and 3.8 seconds and 4.4 seconds and 3.3 seconds and 2.9 seconds. For the same compound, the “CFA-induced inflammatory hyperalgesia” value (male SWISS mice [10]; 1.9 µmol/kg, time 4 h) was 2.5 seconds and 2.6 seconds and 2.7 seconds (2×) and 2.8 seconds and 3.5 seconds, the “CFA-induced inflammatory hyperalgesia” value (male SWISS mice [10]; 1.9 µmol/kg, time BL) was 10.6 s and 9.8 s and 10 s and 10.4 s and 10.3 s and the “return of thermal nociceptive thresholds to basal values” (male SWISS mice [10]; after drug administration) was 2 h. For the same compound, the “time of peak effect” value (male SWISS mice [10]; s.c.) was 15 min, the “effect on thermal sensitivity / paw withdrawal latencies” value (male SWISS mice [10]; s.c., male mice) was “significantly reduced thermal sensitivity” and the Emax (human KOR L309A) was 62.2 ± 1.08%. The “Formalin test (duration of pain behaviour)” value (male SWISS mice [11]; 0.8 µmol/kg) was 234 s and 278 s and 189 s and 251 s and 382 s and 247 s, the “Formalin test (duration of pain behaviour)” value (male SWISS mice [11]; 1.9 µmol/kg) was 208 s and 50 s and 189 s and 169 s and 167 s and 252 s and the “antagonism of antinociception by nor-BNI” value (male SWISS mice [11]; nor-BNI 13.6 µmol kg^−1 s.c. pretreatment) was “significantly reversed the antinociceptive response”. The “antinociceptive ED50” value (male SWISS mice [11]; s.c., male mice) was 1.89 µmol/kg and the “effect on pain behavior” value (male SWISS mice [11]; s.c., male mice) was “dose-dependent reduction in the pain behavior”.
